Measurements: BindingDB's records for patent US9796704 (SYMPHONY EVOLUTION, INC., 2017)

Tests used:
Experiment in all cases: AlphaScreen Assay
[1] = target: Vascular endothelial growth factor receptor 1 (Homo sapiens, UniProt P17948)
[2] = target: Receptor tyrosine-protein kinase erbB-2 (Homo sapiens, UniProt P04626)
Ephrin type-B receptor 4 = target: T1, Ephrin type-B receptor 4 (Homo sapiens, UniProt P54760)
T1 sequence (P54760 whole entry): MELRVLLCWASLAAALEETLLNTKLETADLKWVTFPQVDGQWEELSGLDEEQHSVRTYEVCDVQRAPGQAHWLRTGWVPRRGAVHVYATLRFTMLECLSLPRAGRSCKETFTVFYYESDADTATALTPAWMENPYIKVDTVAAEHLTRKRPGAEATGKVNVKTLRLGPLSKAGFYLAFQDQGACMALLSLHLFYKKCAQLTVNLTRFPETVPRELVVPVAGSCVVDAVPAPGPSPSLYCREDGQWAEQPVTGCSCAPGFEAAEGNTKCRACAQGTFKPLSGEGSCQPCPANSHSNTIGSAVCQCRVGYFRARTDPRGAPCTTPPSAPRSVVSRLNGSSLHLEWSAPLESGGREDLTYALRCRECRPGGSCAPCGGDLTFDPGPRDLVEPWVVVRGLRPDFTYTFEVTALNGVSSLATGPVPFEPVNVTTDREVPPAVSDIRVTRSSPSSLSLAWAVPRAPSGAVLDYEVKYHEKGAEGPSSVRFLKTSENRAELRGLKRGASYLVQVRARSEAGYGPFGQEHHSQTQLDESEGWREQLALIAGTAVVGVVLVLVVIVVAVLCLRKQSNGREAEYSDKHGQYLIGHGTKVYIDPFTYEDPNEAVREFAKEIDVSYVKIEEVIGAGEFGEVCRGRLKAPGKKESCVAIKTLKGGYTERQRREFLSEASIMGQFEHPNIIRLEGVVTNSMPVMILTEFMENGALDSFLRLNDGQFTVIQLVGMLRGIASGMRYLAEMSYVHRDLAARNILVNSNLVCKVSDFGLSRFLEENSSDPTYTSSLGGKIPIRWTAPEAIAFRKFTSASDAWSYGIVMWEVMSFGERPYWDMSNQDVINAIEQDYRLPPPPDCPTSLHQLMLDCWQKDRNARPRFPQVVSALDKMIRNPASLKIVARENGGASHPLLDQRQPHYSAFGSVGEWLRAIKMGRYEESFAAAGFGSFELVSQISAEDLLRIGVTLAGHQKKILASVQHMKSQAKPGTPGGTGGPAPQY

Ephrin type-A receptor 2 = Ephrin type-A receptor 2 (Homo sapiens, UniProt P29317)
Ephrin type-A receptor 2, sequence (P29317 whole entry): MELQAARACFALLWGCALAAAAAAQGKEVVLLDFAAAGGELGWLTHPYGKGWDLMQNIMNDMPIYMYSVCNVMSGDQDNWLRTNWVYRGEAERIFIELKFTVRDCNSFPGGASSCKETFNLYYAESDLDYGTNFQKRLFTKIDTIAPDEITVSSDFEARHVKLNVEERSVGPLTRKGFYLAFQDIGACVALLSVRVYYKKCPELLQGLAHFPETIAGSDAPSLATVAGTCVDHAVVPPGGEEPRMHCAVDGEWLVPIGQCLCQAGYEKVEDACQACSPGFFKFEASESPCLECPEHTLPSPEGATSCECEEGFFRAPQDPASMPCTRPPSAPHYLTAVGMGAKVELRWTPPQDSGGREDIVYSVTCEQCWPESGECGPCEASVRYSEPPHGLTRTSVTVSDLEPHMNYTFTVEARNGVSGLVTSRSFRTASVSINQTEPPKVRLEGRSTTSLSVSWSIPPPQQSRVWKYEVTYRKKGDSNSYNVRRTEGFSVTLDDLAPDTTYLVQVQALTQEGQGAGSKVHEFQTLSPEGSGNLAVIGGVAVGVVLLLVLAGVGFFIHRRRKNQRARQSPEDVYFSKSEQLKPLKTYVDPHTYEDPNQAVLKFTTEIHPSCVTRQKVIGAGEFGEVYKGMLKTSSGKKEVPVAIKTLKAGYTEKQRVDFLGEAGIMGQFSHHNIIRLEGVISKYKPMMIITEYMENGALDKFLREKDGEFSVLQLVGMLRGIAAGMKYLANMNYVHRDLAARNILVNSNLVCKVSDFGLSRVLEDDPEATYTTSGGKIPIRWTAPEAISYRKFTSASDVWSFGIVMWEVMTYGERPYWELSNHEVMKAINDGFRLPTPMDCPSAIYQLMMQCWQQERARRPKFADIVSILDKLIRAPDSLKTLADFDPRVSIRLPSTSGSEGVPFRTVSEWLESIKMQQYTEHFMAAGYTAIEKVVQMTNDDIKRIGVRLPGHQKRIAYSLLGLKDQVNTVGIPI

[3] = target: Vascular endothelial growth factor receptor 2 (Homo sapiens, UniProt P35968)
Vascular endothelial growth factor receptor 2, sequence (P35968 whole entry): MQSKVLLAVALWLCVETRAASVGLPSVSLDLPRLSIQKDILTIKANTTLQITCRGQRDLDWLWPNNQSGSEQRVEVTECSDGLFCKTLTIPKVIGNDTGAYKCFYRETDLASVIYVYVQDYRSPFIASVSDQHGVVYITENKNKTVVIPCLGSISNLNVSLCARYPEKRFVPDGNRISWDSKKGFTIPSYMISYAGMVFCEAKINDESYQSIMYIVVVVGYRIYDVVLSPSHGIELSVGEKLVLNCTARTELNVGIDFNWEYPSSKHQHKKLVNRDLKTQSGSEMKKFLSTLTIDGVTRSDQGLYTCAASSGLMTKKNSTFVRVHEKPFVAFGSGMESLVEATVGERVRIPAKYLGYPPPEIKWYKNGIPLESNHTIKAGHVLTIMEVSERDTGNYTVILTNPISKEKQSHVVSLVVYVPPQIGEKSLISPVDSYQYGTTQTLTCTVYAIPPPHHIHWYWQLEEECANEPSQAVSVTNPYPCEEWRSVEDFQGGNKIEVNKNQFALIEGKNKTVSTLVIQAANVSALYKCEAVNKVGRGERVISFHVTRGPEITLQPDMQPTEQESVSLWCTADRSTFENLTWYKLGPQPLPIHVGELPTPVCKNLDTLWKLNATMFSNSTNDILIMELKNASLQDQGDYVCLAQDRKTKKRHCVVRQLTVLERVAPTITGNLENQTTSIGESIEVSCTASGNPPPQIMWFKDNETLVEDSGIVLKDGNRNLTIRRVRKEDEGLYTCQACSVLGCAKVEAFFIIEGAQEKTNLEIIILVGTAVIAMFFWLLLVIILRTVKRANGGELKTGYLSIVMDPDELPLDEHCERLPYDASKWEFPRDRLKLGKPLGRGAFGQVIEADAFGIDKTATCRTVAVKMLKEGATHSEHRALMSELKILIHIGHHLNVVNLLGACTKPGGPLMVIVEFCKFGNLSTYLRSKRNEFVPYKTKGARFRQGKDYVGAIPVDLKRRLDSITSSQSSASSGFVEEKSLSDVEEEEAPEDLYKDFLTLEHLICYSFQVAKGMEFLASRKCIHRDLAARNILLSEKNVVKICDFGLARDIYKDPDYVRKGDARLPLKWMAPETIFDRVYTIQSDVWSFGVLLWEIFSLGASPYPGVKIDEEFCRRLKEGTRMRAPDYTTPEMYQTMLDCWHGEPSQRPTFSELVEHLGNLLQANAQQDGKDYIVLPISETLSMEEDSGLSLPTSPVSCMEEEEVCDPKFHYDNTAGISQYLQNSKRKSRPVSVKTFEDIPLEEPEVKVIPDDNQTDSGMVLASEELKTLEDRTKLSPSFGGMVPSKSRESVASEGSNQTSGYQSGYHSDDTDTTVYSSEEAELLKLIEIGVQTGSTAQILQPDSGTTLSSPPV

Vascular endothelial growth factor receptor 1, sequence (P17948 whole entry): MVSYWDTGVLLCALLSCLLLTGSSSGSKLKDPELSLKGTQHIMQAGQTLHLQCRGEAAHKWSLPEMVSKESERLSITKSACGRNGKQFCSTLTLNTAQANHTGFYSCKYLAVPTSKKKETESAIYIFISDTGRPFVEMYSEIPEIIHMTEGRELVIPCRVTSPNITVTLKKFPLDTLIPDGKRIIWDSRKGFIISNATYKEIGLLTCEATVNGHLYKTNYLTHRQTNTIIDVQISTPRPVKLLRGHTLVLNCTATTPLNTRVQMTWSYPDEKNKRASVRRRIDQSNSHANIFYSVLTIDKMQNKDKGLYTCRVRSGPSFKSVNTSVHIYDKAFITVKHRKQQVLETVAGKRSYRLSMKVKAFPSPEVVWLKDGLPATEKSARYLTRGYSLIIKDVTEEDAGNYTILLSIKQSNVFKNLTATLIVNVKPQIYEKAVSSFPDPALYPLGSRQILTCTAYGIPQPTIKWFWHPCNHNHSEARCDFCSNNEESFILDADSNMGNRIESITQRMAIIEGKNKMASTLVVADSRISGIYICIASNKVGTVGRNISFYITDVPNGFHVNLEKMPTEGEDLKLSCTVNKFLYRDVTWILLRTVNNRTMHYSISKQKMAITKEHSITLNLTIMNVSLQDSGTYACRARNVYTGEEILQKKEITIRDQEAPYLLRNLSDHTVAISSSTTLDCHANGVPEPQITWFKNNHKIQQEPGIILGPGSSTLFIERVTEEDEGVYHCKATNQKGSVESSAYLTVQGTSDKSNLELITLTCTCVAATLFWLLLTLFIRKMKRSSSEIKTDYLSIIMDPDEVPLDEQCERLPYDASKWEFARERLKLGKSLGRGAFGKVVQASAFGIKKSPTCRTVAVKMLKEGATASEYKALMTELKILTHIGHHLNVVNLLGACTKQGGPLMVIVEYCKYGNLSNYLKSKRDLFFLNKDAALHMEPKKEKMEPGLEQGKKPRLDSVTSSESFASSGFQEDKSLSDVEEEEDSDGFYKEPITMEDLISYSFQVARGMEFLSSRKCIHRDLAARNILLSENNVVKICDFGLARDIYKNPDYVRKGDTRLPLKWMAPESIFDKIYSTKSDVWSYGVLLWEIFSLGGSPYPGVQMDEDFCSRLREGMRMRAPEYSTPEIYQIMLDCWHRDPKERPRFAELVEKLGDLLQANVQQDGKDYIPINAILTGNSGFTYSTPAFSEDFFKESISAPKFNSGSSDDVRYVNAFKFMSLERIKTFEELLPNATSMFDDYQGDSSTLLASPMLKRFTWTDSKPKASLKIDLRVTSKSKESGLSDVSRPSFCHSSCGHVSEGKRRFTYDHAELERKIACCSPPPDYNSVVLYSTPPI
Receptor tyrosine-protein kinase erbB-2, sequence (P04626 whole entry): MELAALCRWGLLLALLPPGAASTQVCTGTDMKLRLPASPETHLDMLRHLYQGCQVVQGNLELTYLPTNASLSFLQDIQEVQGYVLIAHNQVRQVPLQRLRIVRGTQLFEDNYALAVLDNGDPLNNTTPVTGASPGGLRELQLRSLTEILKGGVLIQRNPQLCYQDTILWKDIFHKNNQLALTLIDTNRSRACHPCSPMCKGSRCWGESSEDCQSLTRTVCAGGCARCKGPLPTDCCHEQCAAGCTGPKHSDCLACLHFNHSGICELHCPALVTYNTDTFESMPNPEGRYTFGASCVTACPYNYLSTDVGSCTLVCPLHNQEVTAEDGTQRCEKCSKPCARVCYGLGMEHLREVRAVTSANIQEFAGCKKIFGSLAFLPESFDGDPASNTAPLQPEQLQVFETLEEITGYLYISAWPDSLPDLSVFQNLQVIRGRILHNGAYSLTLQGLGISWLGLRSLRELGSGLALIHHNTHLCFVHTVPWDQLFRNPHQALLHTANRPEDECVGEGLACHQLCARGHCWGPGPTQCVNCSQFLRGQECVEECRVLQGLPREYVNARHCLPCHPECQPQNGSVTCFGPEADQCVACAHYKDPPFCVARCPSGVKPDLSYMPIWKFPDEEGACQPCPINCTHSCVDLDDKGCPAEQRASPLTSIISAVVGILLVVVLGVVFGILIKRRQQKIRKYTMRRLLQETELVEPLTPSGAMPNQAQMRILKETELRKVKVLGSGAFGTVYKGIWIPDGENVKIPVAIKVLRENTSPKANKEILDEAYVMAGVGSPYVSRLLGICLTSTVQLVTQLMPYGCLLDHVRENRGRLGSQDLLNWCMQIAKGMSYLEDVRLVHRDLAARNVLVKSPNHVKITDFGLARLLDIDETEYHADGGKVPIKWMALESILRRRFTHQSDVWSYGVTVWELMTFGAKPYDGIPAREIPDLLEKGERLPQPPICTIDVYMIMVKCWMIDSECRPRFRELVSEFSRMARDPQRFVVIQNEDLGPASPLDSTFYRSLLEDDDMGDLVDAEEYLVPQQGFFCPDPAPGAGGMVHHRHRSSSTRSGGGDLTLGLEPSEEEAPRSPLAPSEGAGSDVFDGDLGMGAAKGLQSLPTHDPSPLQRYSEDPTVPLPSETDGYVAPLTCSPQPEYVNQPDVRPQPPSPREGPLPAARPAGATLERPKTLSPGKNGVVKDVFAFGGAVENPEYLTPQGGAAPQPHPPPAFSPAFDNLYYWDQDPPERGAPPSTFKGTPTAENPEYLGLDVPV

| IC50 [1] | IC50 [2] | IC50 (Ephrin type-B receptor 4) | IC50 (Ephrin type-A receptor 2) | IC50 [3] | Compound |
| --- | --- | --- | --- | --- | --- |
| in the range around 10.5 µM | in the range around 10.5 µM | in the range around 0.525 µM | – | – | COc1cc2c(Nc3ccc(Cl)c(Cl)c3F)ncnc2cc1OC[C@@H]1C[C@@H]2CN(CC(C)C)C[C@@H]2C1 [US9796704, Entry 8] |
| in the range around 0.525 µM | in the range around 10.5 µM | – | in the range around 0.525 µM | in the range around 0.525 µM | COc1cc2c(Nc3ccc(Br)c(Cl)c3F)ncnc2cc1OC[C@@H]1C[C@@H]2CN(CC(C)C)C[C@@H]2C1 [US9796704, Entry 17] |
| in the range around 0.525 µM | in the range around 0.525 µM | < 0.05 µM | – | – | COc1cc2c(Nc3ccc(Br)c(Cl)c3Cl)ncnc2cc1OC[C@H]1CN2CCOCC2CO1 (some centres not stated) [US9796704, Entry 18] |
| in the range around 0.525 µM | in the range around 0.525 µM | in the range around 10.5 µM | in the range around 10.5 µM | in the range around 10.5 µM | COc1cc2c(Nc3ccc(Cl)c(Cl)c3F)ncnc2cc1OC[C@@H]1CN2CCOCC2CO1 (some centres not stated) [US9796704, Entry 22] |
| in the range around 0.525 µM | – | in the range around 10.5 µM | in the range around 10.5 µM | in the range around 10.5 µM | COc1cc2c(Nc3ccc(Br)c(Cl)c3F)ncnc2cc1OC[C@@H]1CN2CCOCC2CO1 (some centres not stated) [US9796704, Entry 23] |
| in the range around 10.5 µM | – | in the range around 0.525 µM | in the range around 10.5 µM | in the range around 0.525 µM | COc1cc2c(Nc3cc(Cl)c(Br)cc3F)ncnc2cc1OC[C@H]1CN2CCC[C@@H]2CO1 [US9796704, Entry 32] |
| in the range around 10.5 µM | in the range around 10.5 µM | in the range around 10.5 µM | in the range around 10.5 µM | – | COc1cc2c(Nc3ccc(Cl)c(Cl)c3F)ncnc2cc1OC[C@@H]1CN2CCC[C@H]2CO1 [US9796704, Entry 36] |
| in the range around 10.5 µM | < 0.05 µM | in the range around 0.525 µM | in the range around 0.525 µM | < 0.05 µM | COc1cc2c(Nc3ccc(F)c(Cl)c3F)ncnc2cc1OC[C@@H]1CN2CCC[C@H]2CO1 [US9796704, Entry 38] |
| in the range around 10.5 µM | in the range around 0.525 µM | in the range around 0.525 µM | in the range around 10.5 µM | – | COc1cc2c(Nc3ccc(Br)c(Cl)c3F)ncnc2cc1OC[C@@H]1CN2CCC[C@H]2C(=O)N1 [US9796704, Entry 53] |
| in the range around 10.5 µM | – | in the range around 0.525 µM | in the range around 10.5 µM | in the range around 10.5 µM | COc1cc2c(Nc3ccc(Cl)c(Cl)c3F)ncnc2cc1OC[C@H]1CN2CCC[C@@H]2C(=O)N1C [US9796704, Entry 54] |

| Compound | IC50 [1] | IC50 [2] | IC50 (Ephrin type-B receptor 4) | IC50 (Ephrin type-A receptor 2) | IC50 [3] |
| --- | --- | --- | --- | --- | --- |
| COc1cc2c(Nc3ccc(Cl)c(Cl)c3)ncnc2cc1OCCC1CC2CCC(C1)N2C (configuration not stated) [US9796704, Entry 57] | in the range around 10.5 µM | in the range around 0.525 µM | in the range around 0.525 µM | – | – |
| COc1cc2c(Nc3ccc(Cl)c(Cl)c3)ncnc2cc1OC1CC2CCC(C1)N2C (configuration not stated) [US9796704, Entry 60] | in the range around 0.525 µM | in the range around 0.525 µM | – | in the range around 10.5 µM | in the range around 10.5 µM |
